Assay results reported in the NIST ThermoML archive (doi:10.1016/j.fluid.2014.09.014).

Experiment: refractive index (other wavelength) (dimensionless); xn = mol fraction of the nth substance listed
Settings: 101 kPa, Liquid, Standard Abbe refractometry

CC(C)OC(C)C [diisopropyl ether] + CO
Settings | refractive index
298.15 K, Wavelength=644 nm, x2 = 0.9233 | 1.33353
298.15 K, Wavelength=644 nm, x2 = 0.9253 | 1.33535
298.15 K, Wavelength=644 nm, x2 = 0.9527 | 1.33222
298.15 K, Wavelength=644 nm, x2 = 0.9773 | 1.32879
298.15 K, Wavelength=644 nm, x2 = 0.989 | 1.32761
298.15 K, Wavelength=644 nm, x2 = 0.9964 | 1.32621
298.15 K, Wavelength=706.5 nm, x2 = 0 | 1.36237
298.15 K, Wavelength=706.5 nm, x2 = 0.0423 | 1.36228
298.15 K, Wavelength=706.5 nm, x2 = 0.0424 | 1.36226
298.15 K, Wavelength=706.5 nm, x2 = 0.082 | 1.36224
298.15 K, Wavelength=706.5 nm, x2 = 0.0822 | 1.36226
298.15 K, Wavelength=706.5 nm, x2 = 0.1171 | 1.3621
298.15 K, Wavelength=706.5 nm, x2 = 0.1271 | 1.36211
298.15 K, Wavelength=706.5 nm, x2 = 0.1827 | 1.36175
298.15 K, Wavelength=706.5 nm, x2 = 0.2162 | 1.36228
298.15 K, Wavelength=706.5 nm, x2 = 0.251 | 1.36166
298.15 K, Wavelength=706.5 nm, x2 = 0.3298 | 1.36089
298.15 K, Wavelength=706.5 nm, x2 = 0.3577 | 1.35951
298.15 K, Wavelength=706.5 nm, x2 = 0.4497 | 1.35863
298.15 K, Wavelength=706.5 nm, x2 = 0.4525 | 1.35916
298.15 K, Wavelength=706.5 nm, x2 = 0.522 | 1.35694
298.15 K, Wavelength=706.5 nm, x2 = 0.5543 | 1.35655
298.15 K, Wavelength=706.5 nm, x2 = 0.609 | 1.35369
298.15 K, Wavelength=706.5 nm, x2 = 0.6529 | 1.35223
298.15 K, Wavelength=706.5 nm, x2 = 0.7504 | 1.34842
298.15 K, Wavelength=706.5 nm, x2 = 0.804 | 1.34426
298.15 K, Wavelength=706.5 nm, x2 = 0.807 | 1.34415
298.15 K, Wavelength=706.5 nm, x2 = 0.8727 | 1.33906
298.15 K, Wavelength=706.5 nm, x2 = 0.9233 | 1.33225
298.15 K, Wavelength=706.5 nm, x2 = 0.9253 | 1.33407
298.15 K, Wavelength=706.5 nm, x2 = 0.9773 | 1.32755
298.15 K, Wavelength=706.5 nm, x2 = 0.989 | 1.32641
298.15 K, Wavelength=706.5 nm, x2 = 0.9964 | 1.32502
303.15 K, Wavelength=40.47 nm, x2 = 0 | 1.37321
303.15 K, Wavelength=40.47 nm, x2 = 0.0423 | 1.37316
303.15 K, Wavelength=40.47 nm, x2 = 0.0424 | 1.37317
303.15 K, Wavelength=40.47 nm, x2 = 0.082 | 1.3731
303.15 K, Wavelength=40.47 nm, x2 = 0.0822 | 1.37318
303.15 K, Wavelength=40.47 nm, x2 = 0.1171 | 1.37301
303.15 K, Wavelength=40.47 nm, x2 = 0.1271 | 1.37303
303.15 K, Wavelength=40.47 nm, x2 = 0.1827 | 1.37268
303.15 K, Wavelength=40.47 nm, x2 = 0.2162 | 1.37251
303.15 K, Wavelength=40.47 nm, x2 = 0.251 | 1.3735
303.15 K, Wavelength=40.47 nm, x2 = 0.3298 | 1.37186
303.15 K, Wavelength=40.47 nm, x2 = 0.3577 | 1.37205
303.15 K, Wavelength=40.47 nm, x2 = 0.4497 | 1.3695
303.15 K, Wavelength=40.47 nm, x2 = 0.4525 | 1.37001
